What all share (assay): relative viability (nuclei count vs DMSO), 5 days (fraction); higher = more cells survive
Compound in one test: CN1CCN(CC1)C2=CC(=C(C=C2)NC3=NC(=C(S3)C(=O)C4=C(C=CC=C4Cl)Cl)N)OC [XMD14-99]
In a few lines: (§1)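 Viability here means nuclei in treated wells divided by nuclei in vehicle wells, reported as the median across plates. Only plates with control CV below 25% and at least one doubling passed. Lung cancer cell lines in 1536-well plates were exposed to five √10-spaced library-drug doses for 5 days and counted from 4× Hoechst images in MetaXpress.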

Compound in another test: N[C@@H]1CCCN(c2c(/C=C3\SC(=O)NC3=O)cccc2-c2ccccc2)C1 [AZD1208]
A digest of the protocol:
as §1

Compound in the test “XMD14-99 + Alpelisib”: CN1CCN(CC1)C2=CC(=C(C=C2)NC3=NC(=C(S3)C(=O)C4=C(C=CC=C4Cl)Cl)N)OC [XMD14-99] + Cc1nc(NC(=O)N2CCC[C@H]2C(N)=O)sc1-c1ccnc(C(C)(C)C(F)(F)F)c1 [Alpelisib] (partner 2 µM)
In a few lines: (§2)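 Medians of duplicate plates are given as relative viability. That measure is the nuclei count in treated wells divided by the count in vehicle wells. Counts were taken on 4× images of lung cancer cell lines in 1536-well plates, 5 days after pin-tool dosing the day after seeding with one drug alone or a fixed anchor-drug dose plus five library-drug doses (not always all listed) in √10 steps.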

Compound in the test “AZD1208 + Pemetrexed”: N[C@@H]1CCCN(c2c(/C=C3\SC(=O)NC3=O)cccc2-c2ccccc2)C1 [AZD1208] + Nc1nc2[nH]cc(CCc3ccc(C(=O)N[C@@H](CCC(=O)O)C(=O)O)cc3)c2c(=O)[nH]1 [Pemetrexed] (partner 0.2 µM)
In a few lines:
as §2

As for HCC-366, the relative viability with XMD14-99 (0.08 µM) was 0.988; with XMD14-99 (0.8 µM), 0.996; in the test with XMD14-99 (2.53 µM) it was 1.01; in the test with XMD14-99 (8 µM), 0.894; with AZD1208 (0.08 µM), 1; with AZD1208 (0.253 µM) it was 0.996. The relative viability with AZD1208 (0.8 µM) worked out at 1.03; with AZD1208 (2.53 µM), 1.01; in the test with AZD1208 (8 µM), 0.993; in the test with XMD14-99 + Alpelisib (first compound 0.08 µM), 0.475; in the test with XMD14-99 + Alpelisib (first compound 0.8 µM), 0.413; with XMD14-99 + Alpelisib (first compound 2.53 µM), 0.366. The relative viability with XMD14-99 + Alpelisib (first compound 8 µM) came out at 0.232; in the test with AZD1208 + Pemetrexed (first compound 0.08 µM) it was 0.182; with AZD1208 + Pemetrexed (first compound 0.253 µM), 0.206; with AZD1208 + Pemetrexed (first compound 0.8 µM) it was 0.194; in the test with AZD1208 + Pemetrexed (first compound 2.53 µM), 0.581; in the test with AZD1208 + Pemetrexed (first compound 8 µM) it was 0.223.

On to HCC-827, for which the relative viability with XMD14-99 (0.08 µM) is 1.06; with XMD14-99 (0.8 µM) it was 0.972; with XMD14-99 (2.53 µM), 0.961; with XMD14-99 (8 µM) it was 0.881; in the test with AZD1208 (0.08 µM) it was 1.08; with AZD1208 (0.253 µM) it was 1.08. In addition, the relative viability in the test with AZD1208 (0.8 µM) is 1.05; with AZD1208 (2.53 µM) it was 1.08; in the test with AZD1208 (8 µM), 1.01; with XMD14-99 + Alpelisib (first compound 0.08 µM) it was 1.05; in the test with XMD14-99 + Alpelisib (first compound 0.8 µM), 0.902; with XMD14-99 + Alpelisib (first compound 2.53 µM), 0.948. Moreover, the relative viability with XMD14-99 + Alpelisib (first compound 8 µM) came to 0.741; with AZD1208 + Pemetrexed (first compound 0.08 µM) it was 0.278; with AZD1208 + Pemetrexed (first compound 0.253 µM), 0.26; in the test with AZD1208 + Pemetrexed (first compound 0.8 µM) it was 0.308; with AZD1208 + Pemetrexed (first compound 2.53 µM), 0.269; with AZD1208 + Pemetrexed (first compound 8 µM), 0.265.

As for HOP-62, the relative viability with XMD14-99 (0.08 µM) was 1.01; in the test with XMD14-99 (0.8 µM), 1; with XMD14-99 (2.53 µM) it was 0.993; with XMD14-99 (8 µM), 0.868; with AZD1208 (0.08 µM) it was 1.09; in the test with AZD1208 (0.253 µM) it was 1.07. The relative viability was 0.941 with AZD1208 (0.8 µM); 1.02 with AZD1208 (2.53 µM); 0.944 with AZD1208 (8 µM); 0.883 with XMD14-99 + Alpelisib (first compound 0.08 µM); 1 with XMD14-99 + Alpelisib (first compound 0.8 µM); 1.04 in the test with XMD14-99 + Alpelisib (first compound 2.53 µM). In addition, the relative viability is 0.818 with XMD14-99 + Alpelisib (first compound 8 µM); 0.298 with AZD1208 + Pemetrexed (first compound 0.08 µM); 0.345 with AZD1208 + Pemetrexed (first compound 0.253 µM); 0.28 in the test with AZD1208 + Pemetrexed (first compound 0.8 µM); 0.289 with AZD1208 + Pemetrexed (first compound 2.53 µM); 0.269 with AZD1208 + Pemetrexed (first compound 8 µM).

Consider LC-2-ad, for which the relative viability with XMD14-99 (0.08 µM) was found to be 0.973; with XMD14-99 (0.8 µM) it was 0.963; with XMD14-99 (2.53 µM), 0.929; with XMD14-99 (8 µM), 0.775; in the test with AZD1208 (0.08 µM), 1.02; in the test with AZD1208 (0.253 µM), 1.03. The relative viability with AZD1208 (0.8 µM) came out at 0.927; in the test with AZD1208 (2.53 µM) it was 0.887; with AZD1208 (8 µM), 0.899; with XMD14-99 + Alpelisib (first compound 0.08 µM), 0.855; with XMD14-99 + Alpelisib (first compound 0.8 µM), 0.863; with XMD14-99 + Alpelisib (first compound 2.53 µM) it was 0.839. Moreover, the relative viability with XMD14-99 + Alpelisib (first compound 8 µM) turned out to be 0.633; with AZD1208 + Pemetrexed (first compound 0.08 µM), 0.246; with AZD1208 + Pemetrexed (first compound 0.253 µM) it was 0.278; with AZD1208 + Pemetrexed (first compound 0.8 µM), 0.269; with AZD1208 + Pemetrexed (first compound 2.53 µM), 0.246; in the test with AZD1208 + Pemetrexed (first compound 8 µM), 0.272.

LCLC-97TM1: the relative viability with XMD14-99 (0.08 µM) is 0.982; with XMD14-99 (0.8 µM) it was 1; in the test with XMD14-99 (2.53 µM) it was 0.828; with XMD14-99 (8 µM) it was 0.571; with AZD1208 (0.08 µM), 0.95; with AZD1208 (0.253 µM), 0.885. The relative viability with AZD1208 (0.8 µM) came out at 0.813; with AZD1208 (2.53 µM) it was 0.852; with AZD1208 (8 µM), 0.631; in the test with XMD14-99 + Alpelisib (first compound 0.08 µM) it was 0.263; in the test with XMD14-99 + Alpelisib (first compound 0.8 µM), 0.201; with XMD14-99 + Alpelisib (first compound 2.53 µM), 0.202. Also, the relative viability with XMD14-99 + Alpelisib (first compound 8 µM) turned out to be 0.202; in the test with AZD1208 + Pemetrexed (first compound 0.08 µM), 0.188; with AZD1208 + Pemetrexed (first compound 0.253 µM), 0.176; in the test with AZD1208 + Pemetrexed (first compound 0.8 µM), 0.125; with AZD1208 + Pemetrexed (first compound 2.53 µM), 0.175; with AZD1208 + Pemetrexed (first compound 8 µM), 0.171.

In the case of LCLC-103H, the relative viability in the test with XMD14-99 (0.08 µM) was 0.953; with XMD14-99 (0.8 µM) it was 1.02; with XMD14-99 (2.53 µM) it was 0.963; in the test with XMD14-99 (8 µM) it was 0.907; with AZD1208 (0.08 µM), 1.02; in the test with AZD1208 (0.253 µM), 1.04. Moreover, the relative viability worked out at 0.938 with AZD1208 (0.8 µM); 0.773 with AZD1208 (2.53 µM); 0.777 with AZD1208 (8 µM); 0.867 in the test with XMD14-99 + Alpelisib (first compound 0.08 µM); 1.04 with XMD14-99 + Alpelisib (first compound 0.8 µM); 0.959 with XMD14-99 + Alpelisib (first compound 2.53 µM). For the same cell line, the relative viability in the test with XMD14-99 + Alpelisib (first compound 8 µM) was determined as 0.863; in the test with AZD1208 + Pemetrexed (first compound 0.08 µM) it was 0.453; in the test with AZD1208 + Pemetrexed (first compound 0.253 µM), 0.46; with AZD1208 + Pemetrexed (first compound 0.8 µM), 0.51; with AZD1208 + Pemetrexed (first compound 2.53 µM), 0.43; with AZD1208 + Pemetrexed (first compound 8 µM) it was 0.477.

As for LK-2, the relative viability stood at 0.914 with XMD14-99 (0.08 µM); 1.04 in the test with XMD14-99 (0.8 µM); 1.09 with XMD14-99 (2.53 µM); 0.913 with XMD14-99 (8 µM); 0.882 with AZD1208 (0.08 µM); 0.718 in the test with AZD1208 (0.253 µM). Besides, the relative viability in the test with AZD1208 (0.8 µM) turned out to be 0.63; with AZD1208 (2.53 µM) it was 0.493; with AZD1208 (8 µM), 0.42; with XMD14-99 + Alpelisib (first compound 0.08 µM), 1.01; in the test with XMD14-99 + Alpelisib (first compound 0.8 µM), 1.11; with XMD14-99 + Alpelisib (first compound 2.53 µM), 0.855. Moreover, the relative viability in the test with XMD14-99 + Alpelisib (first compound 8 µM) is 1.05; with AZD1208 + Pemetrexed (first compound 0.08 µM), 0.344; with AZD1208 + Pemetrexed (first compound 0.253 µM), 0.25; with AZD1208 + Pemetrexed (first compound 2.53 µM), 0.219; with AZD1208 + Pemetrexed (first compound 8 µM), 0.163.

With LOU-NH91, the relative viability came to 1.06 with XMD14-99 (0.08 µM); 0.922 in the test with XMD14-99 (0.8 µM); 0.898 with XMD14-99 (2.53 µM); 0.829 with XMD14-99 (8 µM); 1.02 with AZD1208 (0.08 µM); 0.889 in the test with AZD1208 (0.253 µM). In addition, the relative viability in the test with AZD1208 (0.8 µM) turned out to be 0.954; with AZD1208 (2.53 µM), 0.953; with AZD1208 (8 µM), 0.892; in the test with XMD14-99 + Alpelisib (first compound 0.08 µM), 0.72; with XMD14-99 + Alpelisib (first compound 0.8 µM), 0.804; with XMD14-99 + Alpelisib (first compound 2.53 µM), 0.735. Besides, the relative viability with XMD14-99 + Alpelisib (first compound 8 µM) came out at 0.622; with AZD1208 + Pemetrexed (first compound 0.08 µM) it was 0.357; with AZD1208 + Pemetrexed (first compound 0.253 µM), 0.409; with AZD1208 + Pemetrexed (first compound 0.8 µM) it was 0.421; with AZD1208 + Pemetrexed (first compound 2.53 µM) it was 0.357; with AZD1208 + Pemetrexed (first compound 8 µM) it was 0.434.

For the origin of these results see the supplement of paper PMC10307832.
